According to US9718812B2, “Substituted thiazole or oxazole P2X7 receptor antagonists” (Axxam S.P.A., priority 2014, dated 2017):

What was measured:
Type in all cases: cell-based
[1] = target: T1, P2X7 receptor (Homo sapiens (Human), UniProt Q99572); test: human P2X7 channel assay by automated patch-clamp (QPatch 16X); settings: HEK-293 cells expressing P2X7 channels, 100 microM BzATP, held at -80 mV, read-out: hP2X7 (IC50; nM)
Description: In order to directly monitor the block of P2X7 channel, an electrophysiological assay was developed and implemented on the QPatch 16X automated electrophysiology instrument.
HEK-293 cells expressing the P2X7 channels were cultured in modified EMEM.
72 hours before experiment, 5 million cells were seeded onto T225 flasks. Just before the experiment cells were washed twice, detached from the flask with trypsin-EDTA, re-suspended in the suspension solution and placed on the QPatch 16x.
The compounds (20 mM in a 100% DMSO) stored at −20° C. were prepared the day of the experiment (a first dilution 1:20 in 100% DMSO to prepare a 1 mM stock solution, then a 1 microM solution in external solution+a serial dilution 1:10).
The standard whole-cell voltage clamp experiments were performed at room temperature. For these experiments the multihole technology was used and the data were sampled at 2 KHz.
The intracellular solution contained (mM) 135 CsF, 10 NaCl, 1 EGTA, 10 HEPES, (pH 7.2 with CsOH) whereas the extracellular contained (mM) 145 NaCl, 4 KCl, 0.5 MgCl2, 1 CaCl2, 10 HEPES, 10 Glc (pH 7.4 with NaOH).
After establishment of the seal and the passage in the whole cell configuration, the cells were held at −80 mV. The P2XR7 current was evoked by applying 100 microM of BzATP alone (4 times) and then in the presence increasing concentrations of the compound under investigation (1, 10, 100 and 1000 nM).
The pre-incubation periods 5 to 8 contain increasing concentrations of the compound of interest (1, 10, 100 and 1000 nM), as illustrated in Figure (application protocol).
The maximal inward current evoked by BzATP in absence or presence of increasing concentrations of the compounds under investigation was measured and normalized.
Y: normalized response, 100% down to 0%, decreasing as X increases.
Log IC50: same log units as X
HillSlope: slope factor or HS, unitless

[2] = target: T1, P2X7 receptor; test: YO-PRO-1 Uptake Assay (large pore form, Bz-ATP stimulated); settings: HEK-293 cells stably transfected with P2X7 receptor; Bz-ATP EC80 (30 μM); 5 μM YO-PRO-1
In short: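 IC50 values derive from percent inhibition versus A438079, using large-pore YO-PRO-1 (5 μM) entry into P2X7-transfected HEK-293 cells. Buffer held 0.3 mM Ca2+ and no Mg2+; after 5 min with test compound, cells were challenged with Bz-ATP at EC80 (30 μM, 3× concentration) and fluorescence recorded 60 min.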

[3] = target: P2X7 receptor (hP2X7) (Homo sapiens (Human), UniProt Q99572); test: Screen Quest Fluo-8 No Wash Calcium Assay (Bz-ATP-induced Ca2+ influx, FLIPR TETRA); settings: HEK-293 cells stably transfected with P2X7 receptor, Fluo-8 calcium, Low Divalent Cation Assay Buffer
In short: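 Read-out is Fluo-8 NW fluorescence recorded over a 5-min kinetic window, reporting Bz-ATP-evoked Ca2+ entry. Cells: HEK-293 stably expressing the P2X7 receptor, dye-loaded for 1 h at room temperature before compound injection.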

T1 sequence (Q99572 whole entry): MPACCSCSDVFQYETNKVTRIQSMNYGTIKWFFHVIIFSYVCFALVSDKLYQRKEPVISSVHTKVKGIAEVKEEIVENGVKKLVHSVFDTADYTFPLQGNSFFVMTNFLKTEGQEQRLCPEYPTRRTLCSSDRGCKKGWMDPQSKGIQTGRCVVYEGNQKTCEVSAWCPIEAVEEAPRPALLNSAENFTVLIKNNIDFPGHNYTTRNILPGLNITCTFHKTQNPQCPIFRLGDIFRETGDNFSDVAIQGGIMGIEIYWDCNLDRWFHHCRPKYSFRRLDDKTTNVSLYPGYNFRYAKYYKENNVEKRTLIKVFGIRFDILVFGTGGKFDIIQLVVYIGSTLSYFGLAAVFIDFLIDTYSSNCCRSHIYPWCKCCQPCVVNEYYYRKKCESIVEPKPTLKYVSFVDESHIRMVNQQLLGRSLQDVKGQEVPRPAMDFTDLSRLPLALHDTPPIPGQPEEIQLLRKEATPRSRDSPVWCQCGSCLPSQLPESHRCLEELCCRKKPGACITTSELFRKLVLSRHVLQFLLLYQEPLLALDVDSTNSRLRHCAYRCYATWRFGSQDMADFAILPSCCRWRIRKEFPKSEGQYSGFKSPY
Sequence of P2X7 receptor (hP2X7) (Q99572 whole entry): as above

Cc1cccc(C)c1C(=O)NCC(c1cncs1)N1CCC(F)(F)CC1 (stereo not shown) [Compound 14, N-[2-(4,4-difluoropiperidin-1-yl)-2-(1,3-thiazol-5-yl)ethyl]-2,6-dimethylbenzamide]
IC50 [1]: 22.7 nM
IC50 [2]: 24 nM
IC50 [3]: 27 nM

O=C(NCC(c1scnc1C(F)(F)F)N1CCC(F)(F)CC1)c1cc(-c2ncc(F)cn2)ccc1Cl (stereo not shown) [Compound 68]
IC50 [1]: 63.1 nM
IC50 [2]: 181 nM
IC50 [3]: 103 nM

Cc1ncsc1C(CNC(=O)c1c(F)cccc1Cl)N1CCOCC1 (stereo not shown) [Compound 35, 2-chloro-6-fluoro-N-[2-(4-methyl-1,3-thiazol-5-yl)-2-(morpholin-4-yl)ethyl]benzamide]
IC50 [1]: 947 nM
IC50 [2]: 4080 nM
IC50 [3]: 469 nM

Cc1ncoc1C(CNC(=O)c1ccc(-c2ncc(F)cn2)cc1Cl)N1CCc2ccccc2C1 (stereo not shown) [Compound 57, 2-chloro-4-(5-fluoropyrimidin-2-yl)-N-[2-(4-methyl-1,3-oxazol-5-yl)-2-(1,2,3,4-tetrahydroisoquinolin-2-yl)ethyl]benzamide]
IC50 [1]: 71 nM
IC50 [2]: 197 nM
IC50 [3]: 214 nM

Cc1cccc(-c2ccc(Cl)c(C(=O)NCC(c3scnc3C)N3CCC(F)(F)CC3)c2)n1 (stereo not shown) [Compound 74, 2-chloro-N-[2-(4,4-difluoropiperidin-1-yl)-2-(4-methyl-1,3-thiazol-5-yl)ethyl]-5-(6-methylpyridin-2-yl)benzamide]
IC50 [1]: 65.2 nM
IC50 [2]: 87 nM
IC50 [3]: 55 nM

O=C(NCC(c1scnc1C(F)(F)F)N1CCC(F)(F)CC1)c1c(F)cccc1Cl (stereo not shown) [Compound 67, 2-chloro-N-[2-(4,4-difluoropiperidin-1-yl)-2-[4-(trifluoromethyl)-1,3-thiazol-5-yl]ethyl]-6-fluorobenzamide]
IC50 [1]: 117 nM
IC50 [2]: 287 nM
IC50 [3]: 108 nM

Cc1ncsc1C(CNC(=O)c1cc(-c2ncc(F)cn2)ccc1F)N1CCC(F)(F)CC1 (stereo not shown) [Compound 70, N-[2-(4,4-difluoropiperidin-1-yl)-2-(4-methyl-1,3-thiazol-5-yl)ethyl]-2-fluoro-5-(5-fluoropyrimidin-2-yl)benzamide]
IC50 [1]: 58.4 nM
IC50 [2]: 183 nM
IC50 [3]: 32 nM

Cc1ncc(C(CNC(=O)c2cc(-c3ncc(F)cn3)ccc2Cl)N2CCC(F)(F)CC2)s1 (racemic) [Compound 61, 2-chloro-N-[2-(4,4-difluoropiperidin-1-yl)-2-(2-methyl-1,3-thiazol-5-yl)ethyl]-5-(5-fluoropyrimidin-2-yl)benzamide]
IC50 [1]: 56.3 nM
IC50 [2]: 124 nM
IC50 [3]: 280 nM

O=C(NCC(c1cncs1)N1CCC(F)(F)CC1)c1cc(-c2ncc(F)cn2)ccc1Cl (stereo not shown) [Compound 20, 2-chloro-N-[2-(4,4-difluoropiperidin-1-yl)-2-(1,3-thiazol-5-yl)ethyl]-5-(5-fluoropyrimidin-2-yl)-benzamide]
IC50 [2]: 30 nM
IC50 [3]: 34 nM

Cc1cccc(Cl)c1C(=O)NCC(c1cncs1)N1CCC(F)(F)CC1 (stereo not shown) [Compound 15, 2-chloro-N-[2-(4,4-difluoropiperidin-1-yl)-2-(1,3-thiazol-5-yl)ethyl]-6-methylbenzamide]
IC50 [2]: 38 nM
IC50 [3]: 8 nM

Cc1cccc(Cl)c1C(=O)NCC(c1cncs1)N1CCc2ccccc2C1 (stereo not shown) [Compound 19, 2-chloro-6-methyl-N-[2-(1,2,3,4-tetrahydroisoquinolin-2-yl)-2-(1,3-thiazol-5-yl)ethyl]benzamide]
IC50 [2]: 197 nM
IC50 [3]: 104 nM

O=C(NCC(c1cncs1)N1CCOCC1)c1c(F)cccc1Cl (stereo not shown) [Compound 10, 2-chloro-6-fluoro-N(2-(morpholin-4-yl)-2-(thiazol-5-yl)-ethyl)benzamide]
IC50 [2]: 57 nM
IC50 [3]: 57 nM

O=C(NCC(c1cnc(CO)s1)N1CCC(F)(F)CC1)c1cc(-c2ncc(F)cn2)ccc1Cl (stereo not shown) [Compound 112]
IC50 [2]: 36 nM
IC50 [3]: 119 nM

Cc1cccc(Cl)c1C(=O)NCC(c1scnc1C)N1CCOC(c2ccc(F)cc2F)C1 (stereo not shown) [Compound 100, 2-chloro-N-{2-[2-(2,4-difluorophenyl)morpholin-4-yl]-2-(4-methyl-1,3-thiazol-5-yl)ethyl}-6-methylbenzamide]
IC50 [2]: 72 nM
IC50 [3]: 68 nM

Cc1cccc(C)c1C(=O)NCC(c1cnco1)N1CCc2ccccc2C1 (stereo not shown) [Compound 49, 2,6-dimethyl-N-[2-(1,3-oxazol-5-yl)-2-(1,2,3,4-tetrahydroisoquinolin-2-yl)ethyl]benzamide]
IC50 [2]: 945 nM
IC50 [3]: 104 nM

O=C(NCC(c1cnc(C(F)(F)F)s1)N1CCC(F)(F)CC1)c1c(F)cccc1Cl (stereo not shown) [Compound 81, 2-chloro-N-[2-(4,4-difluoropiperidin-1-yl)-2-[2-(trifluoromethyl)-1,3-thiazol-5-yl]ethyl]-6-fluorobenzamide]
IC50 [2]: 16 nM
IC50 [3]: 38 nM

O=C(NCC(c1cnco1)N1CCc2ccccc2C1)c1c(F)cccc1Cl (stereo not shown) [Compound 48, 2-chloro-6-fluoro-N-[2-(1,3-oxazol-5-yl)-2-(1,2,3,4-tetrahydroisoquinolin-2-yl)ethyl]benzamide]
IC50 [2]: 1070 nM
IC50 [3]: 541 nM

O=C(NCC(c1cnc(C2CCC2)s1)N1CCC(F)(F)CC1)c1c(F)cccc1Cl (stereo not shown) [Compound 110, 2-chloro-N-[2-(2-cyclobutyl-1,3-thiazol-5-yl)-2-(4,4-difluoropiperidin-1-yl)ethyl]-6-fluorobenzamide]
IC50 [2]: 46 nM
IC50 [3]: 119 nM

Cc1ncoc1C(CNC(=O)c1cc(-c2ncc(F)cn2)ccc1Cl)N1CCC(F)(F)CC1 (stereo not shown) [Compound 51, 2-chloro-N-[2-(4,4-difluoropiperidin-1-yl)-2-(4-methyl-1,3-oxazol-5-yl)ethyl]-5-(5-fluoropyrimidin-2-yl)benzamide]
IC50 [2]: 71 nM
IC50 [3]: 101 nM

Cc1ncsc1C(CN(C)C(=O)c1cc(-c2ncc(F)cn2)ccc1Cl)N1CCC(F)(F)CC1 (stereo not shown) [Compound 77, 2-chloro-N-[2-(4,4-difluoropiperidin-1-yl)-2-(4-methyl-1,3-thiazol-5-yl)ethyl]-5-(5-fluoropyrimidin-2-yl)-N-]
IC50 [1]: 183 nM
IC50 [3]: 1760 nM

Cc1ncsc1C(CNC(=O)c1cccc2ncccc12)N1CCOC(c2ccc(F)cc2F)C1 (stereo not shown) [Compound 99, N-{2-[2-(2,4-difluorophenyl)morpholin-4-yl]-2-(4-methyl-1,3-thiazol-5-yl)ethyl}quinoline-5-carboxamide]
IC50 [2]: 79 nM
IC50 [3]: 32 nM

O=C(NCC(c1cnc(C2CCC(F)(F)CC2)s1)N1CCOCC1)c1c(F)cccc1Cl (stereo not shown) [Compound 116, 2-chloro-N-{2-[2-(4,4-difluorocyclohexyl)-1,3-thiazol-5-yl]-2-(morpholin-4-yl)ethyl}-6-fluorobenzamide]
IC50 [2]: 41 nM
IC50 [3]: 60 nM

O=C(NCC(c1cnc(C2CC2)s1)N1CCC(F)(F)CC1)c1cc(-c2ncc(F)cn2)ccc1Cl (stereo not shown) [Compound 87]
IC50 [2]: 126 nM
IC50 [3]: 179 nM

Cc1cccc(C)c1C(=O)NCC(c1cncs1)N1CCC(OCc2ccccc2)CC1 (stereo not shown) [Compound 23, N-{2-[4-(benzyloxy)piperidin-1-yl]-2-(1,3-thiazol-5-yl)ethyl}-2,6-dimethylbenzamide]
IC50 [2]: 40 nM
IC50 [3]: 118 nM

Cc1cccc(C)c1C(=O)NCC(c1cnco1)N1CCC(F)(F)CC1 (stereo not shown) [Compound 46, N-[2-(4,4-difluoropiperidin-1-yl)-2-(1,3-oxazol-5-yl)ethyl]-2,6-dimethylbenzamide]
IC50 [2]: 55 nM
IC50 [3]: 18 nM

Cc1ncsc1C(CNC(=O)c1cccc2ncccc12)N1CCC(F)(F)CC1 (stereo not shown) [Compound 33, N-[2-(4,4-difluoropiperidin-1-yl)-2-(4-methyl-1,3-thiazol-5-yl)ethyl]quinoline-5-carboxamide]
IC50 [2]: 176 nM
IC50 [3]: 158 nM

CCCc1ncc(C(CNC(=O)c2cccc3ncccc23)N2CCC(F)(F)CC2)s1 (stereo not shown) [Compound 108, N-[2-(4,4-difluoropiperidin-1-yl)-2-(2-propyl-1,3-thiazol-5-yl)ethyl]quinoline-5-carboxamide]
IC50 [2]: 77 nM
IC50 [3]: 199 nM

O=C(NCC(c1cscn1)N1CCc2ccccc2C1)c1c(F)cccc1Cl (stereo not shown) [Compound 6, 2-chloro-N-[2-(3,4-dihydro-1H-isoquinolin-2-yl)-2-(1,3-thiazol-4-yl)-ethyl]-6-fluoro-benzamide]
IC50 [2]: 1260 nM
IC50 [3]: 800 nM
